In patent publication US20090136561A1, “Non-peptidyl agents with pHSP20-like activity, and uses thereof” (Prolexys Pharmaceuticals, Inc., priority 2004, published 2009):
Several values for one entry are separate records, joined by “and”; a condition that tells them apart may be missing. Equal values may be shown once. Entries after “also recorded” stand apart in the source; their conditions may differ. Non-standard residues stand in square brackets, D forms with d. Residues, ends and D or L forms follow the SMILES beside them. pS = N[C@@H](COP(=O)(O)O)C(=O)O

Tests used:
[1] = tested on: Primary human airway smooth muscle cells; test: Magnetic twisting cytometry, cell stiffness (storage modulus G'); type: cell-based; details: for change of cell stiffness (storage modulus): controls, measured over 10 minutes
Protocol: Primary human airway smooth muscle cells were isolated from healthy individuals and cultured to passage 3-6. The cells were grown to confluence, and then serum deprived for 24 hours. The serum-deprived cells were plated on plastic wells coated with collagen. After the cells were plated, RGD-coated microbeads were added. As described by Wang et al. Science 260:1124-1127, 1993, the microbeads become tightly anchored to the cell cytoskeleton. Consequently, the movement of the cells can be determined by monitoring the motion of the microbeads.
Once the cells were attached to the microbeads, the beads were magnetized using a magnetizing coil and twisted using a twisting coil, which generates an oscillating magnetic field at 0.7 Hz. The bead displacement is measured using video microscopy at 83 ms intervals. The amplitude of bead displacement is dependent on several factors, but generally the displacement is directly proportional to cell stiffness. The cell stiffness is expressed as a change of storage modulus (G′) over time (Maksym et al., J. Appl. Physiol. 89: 1619-1632, 2000).
The cell stiffness for control experiments and experiments using peptides was measured over 10 minutes. The peptides were added 1 minute after the start of the experiment. The cell stiffness for non-peptidyl compounds of the invention was measured for 1 minute, stopped, compound added and stiffness was measured for another 10 minutes.

[2] = target: T1, 14-3-3 gamma isoform (Homo sapiens, UniProt P61981); test: Biacore competition: 14-3-3 gamma flowed over immobilized pHSP20 peptide in presence of competing peptides; type: binding; details: free peptide as competitor
T1 construct: GST-His (E23) or Biotin-His (E25)
T1 sequence (P61981 1-247): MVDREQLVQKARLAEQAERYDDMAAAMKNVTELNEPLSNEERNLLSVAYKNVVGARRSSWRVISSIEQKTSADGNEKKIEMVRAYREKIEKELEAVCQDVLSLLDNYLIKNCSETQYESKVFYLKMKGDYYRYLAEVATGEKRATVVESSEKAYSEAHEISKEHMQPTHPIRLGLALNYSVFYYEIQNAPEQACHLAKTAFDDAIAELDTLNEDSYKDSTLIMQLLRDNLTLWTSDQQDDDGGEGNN
Protocol: To determine the relative binding affinity between various truncated versions of the pHSP20 (phosphorylated HSP20) peptide and the 14-3-3 gamma isoform, Applicants employed Biacore binding assays and the experiments were set up as follows. The pHSP20 peptide used in the original experiments (e.g., WLRRAp[…]) was immobilized to a Biacore chip and competition experiments were performed by flowing a 14-3-3 gamma isoform protein over the chip in the presence of different pHSP20 truncation variants. The pHSP20 truncation variants included: a) pHSP20 (positive control); b) HSP20 (unphosphorylated pHSP20, negative control); c) RRApSAP (minimal 14-3-3 consensus binding sequence); d) WLRRApSAP; e) RRApSAPLP; f) RRAp[…]; g) WLRRApSAPLP.
Competition experiments were done whereby the only variable between experiments is the identity of the competing peptide.

[3] = target: T2, interaction between 14-3-3γ and pHSP20 (Homo sapiens, UniProt P61981); test: Fluorescence polarization assay of 14-3-3γ / fluorescein-labeled pHSP20 peptide (WLRRApSAP) interaction; type: binding; details: for inhibition of interaction between 14-3-3γ and pHSP20: dose response, FIG. 9; for IC50: multiple concentrations, FIG. 10
T2 sequence (P61981 1-247): T1 sequence (P61981 1-247)
Protocol: The ability of compounds (a)-(k) to inhibit the interaction between 14-3-3γ and pHSP20 was determined by a fluorescence polarization (FP) assay. […] The initial screen for inhibitors examined approximately 50,000 compounds in the DiverSet library (ChemBridge, San Diego). Initial compound screening was carried out by first mixing peptide and individual compounds followed by addition of protein to a final volume of 15 ul. The final concentrations of each component were: 57.4 nM peptide, 10 uM compound, 5% DMSO, 1.5 uM 14-3-3 gamma, 0.01 M HEPES pH 7.4, 0.15 M NaCl, 3 mM EDTA, 0.005% Tween 20, 10 mM MnCl2, 9.33 mM Tris (7.5), and 0.0093% NaN3.
The ability of compounds (l) and (m) to inhibit the interaction between 14-3-3γ and pHSP20 was determined by a fluorescence polarization (FP) assay as described in Example 4, except that the compound was measured at multiple concentrations.

[4] = tested on: Primary human airway smooth muscle cells; test: Spontaneous bead motion (MSD) of RGD-coated microbeads on airway smooth muscle cells; type: cell-based; details: for effect on bead motion: formulated with 4% cyclodextrin, 10-15 minutes incubation
Protocol: Primary human airway smooth muscle cells were isolated from healthy individuals and cultured to passage 3-6. The cells were grown to confluence, and then serum deprived for 24 hours. The serum-deprived cells were plated on plastic wells coated with collagen.
After the cells were plated, RGD-coated microbeads were added. […] Consequently, the movement of the cells can be determined by monitoring the motion of the microbeads. In this assay, the rate of spontaneous bead motions (i.e., cell motion) depends upon the rate of reorganization of the actin cytoskeleton.
The position of each bead was recorded using video microscopy. The two-dimensional trajectory of bead motion are expressed as a mean square displacement (MSD) as a function of time: […]
where ri(t) is the distance of the ith bead at time t relative to its position at time 0.
The spontaneous bead motion in each sample of cells was first measured for 5 minutes. […] Spontaneous bead motions were then measured for another 5 minutes.

[5] = tested on: Bovine coronary artery rings; test: Contraction/dilation of serotonin-treated bovine coronary artery rings; type: cell-based; details: for effect on the rings: cyclodextrin formulation, serotonin treated, 30 minutes after treatment
Protocol: Bovine coronary artery rings were treated with compositions containing only cyclodextrin or formulations of cyclodextrin in combination with a pHSP20 peptide, compound (m) or compound (n). The contraction of the rings was measured over time after treatment with serotonin and one of the formulations above. Each of the formulations was tested at several concentrations, with the exception of the pHSP20 peptide.

[6] = tested on: 14-3-3 isoforms (YWHAG, YWHAH, YWHAE, YWAHB, YWHAZ); test: Biacore binding of tagged 14-3-3 isoforms to immobilized pHSP20 peptide; details: E23- and E25-tagged 14-3-3 proteins
Protocol: To further determine binding specificity of the pHSP20 peptide for each 14-3-3 isoform, similar binding experiments were carried out with each 14-3-3 isoform. Various 14-3-3 isoforms were either tagged with GST-His (referred to as “E23”) or tagged with Biotin-His (referred to as “E25”). The E23-14-3-3 proteins (tagged with GST-His) bound much better than the E25-14-3-3 proteins (tagged with Biotin-His). Similar effects were detected by using a version of YWHAG (also referred to as 14-3-3γ) in which the GST tag was proteolytically removed. […] It is believed that the GST either has a chaperone or stabilizing effect on YWHAG or it promotes the formation of dimers of YWHAG which could have different binding properties to pHSP20. Further experiments are planned to elucidate this discrepancy.

[7] = tested on: 14-3-3 proteins; test: Pull-down with bead-immobilized peptides from HEK293 whole cell lysate, SDS-PAGE and MS analysis; type: binding, human; details: peptide immobilized on Affigel 10 beads
Protocol: To determine if the pHSP20 peptide binds to 14-3-3, pull-down experiments were conducted with pHSP20 and its analogues, aHSP20 and scrHSP20, linked to NHS activated Affigel 10 beads. As an additional control, activated beads were also reacted with ethanolamine. Each of the bead-bound peptide samples and the ethanolamine control were then separately incubated for 1.5 h at 4° C. with a whole cell lysate derived from HEK293 cells. After thoroughly washing the beads, each of the four sets of beads was eluted with a 100 μM solution of the free peptide corresponding to the one immobilized on the beads; the ethanolamine control beads were eluted with pHSP20. Approximately 15% of the eluate volume was run on an SDS-PAGE gel, while the remainder of the eluate was precipitated with ethanol and then analyzed by a 2D-LC shotgun MS method (Washburn et al., 2001, Nat. Biotechnol. 19:242).
The N-terminal amino group of the peptides was utilized for the immobilization to N-hydroxysuccinimide activated Affi-Gel 10 beads (Biorad, Hercules, Calif.). For the immobilization, 60 μg of each peptide, dissolved in dimethylformamide (DMF), was incubated for 4 h with 100 μl beads and 0.14 μmol triethylamine (Sigma, St. Louis, Mo.). The final volume during the immobilization was 400 μl. […] The release of the ivDde group was monitored by measuring the absorption at 290 nm. […]

How did the “change of cell stiffness (storage modulus)” value [1] turn out when `NCCc1c[nH]cn1` [histamine] was run?
Its value is “increased the cell stiffness”.

With WLRRApSAP as the compound, how does the “competition with immobilized pHSP20 peptide for binding to 14-3-3γ” value (“competition” below) [2] read?
Its value is “higher binding affinity to 14-3-3 gamma than the original pHSP20 peptide; also recorded: strong competition”.

For `COc1ccccc1Nc1nc(-c2ccccc2)[n+](-c2ccccc2)s1` [(j)], which “inhibition of interaction between 14-3-3γ and pHSP20” value (“inhibition” for short) [3] is on record?
The value was “able to largely inhibit interaction”.

Which “effect on bead motion” value [4] does the source give for `O=C(N/N=C/c1ccc(O)c(O)c1O)c1ccncc1` [compound (m)] here?
The value was “not conclusive”.

What about the IC50 [3] of the same compound?
Its IC50 is about 13.5 µM.

And the “duration of vasodilatory effect compared with pHSP20 peptide” value [5]?
The value was “longer than that of the pHSP20 peptide”.

What about the “vasodilatory effect at 40 minutes after treatment” value [5] of the same compound?
Its value is “no significant decrease in the vasodilatory effect”.

What about the “effect on the rings” value [5] of the same compound?
The value was “vasodilatory effect”.

Which results are given for `COc1ccc(/C=N/NC(=O)c2cncc(Br)c2)c(OC)c1OC` [compound (n)]?
effect on bead motion [4]: not conclusive; duration of vasodilatory effect compared with pHSP20 peptide [5]: longer than that of the pHSP20 peptide; vasodilatory effect at 40 minutes after treatment [5]: no significant decrease in the vasodilatory effect; effect on the rings [5]: vasodilatory effect

Which “effect on bead movement” value ([4]; 200 μM, negative control) does the source give for `O=[As]O` [sodium arsenite, reference compound] here?
Its value is “decrease in bead movement”.

For `O=[N+]([O-])C1=Cc2cc(Br)cc(Br)c2OC1c1c(Cl)cccc1Cl` (stereo not drawn) [compound (l)], which IC50 [3] is on record?
The IC50 was about 32 µM.

Which “effect on bead motion” value [4] does the source give for `O=C(N/N=C/c1cc(O)ccc1Br)c1ccncc1` [(o)] here?
Its value is “not conclusive”.

Which “change of cell stiffness (storage modulus)” value [1] does the source give for `CC(C)NCC(O)c1ccc(O)c(O)c1` (stereo not drawn) [isoproterenol] here?
Its value is “decreased the stiffness”.

`c1ccc(CNc2nc(-c3ccccc3)[n+](-c3ccccc3)s2)cc1` [compound (f)] was tested. Which “change of cell stiffness compared to the cyclodextrin control” value ([1]; solubilized with cyclodextrin, 10 minutes after addition) did it give?
The value was “particular striking”.

What about the “effect on bead motion” value [4] of the same compound?
The value was “clearly increases bead motion”.

And the “inhibition” value [3]?
The value was “able to largely inhibit interaction”.

`CC(C)C[C@H](NC(=O)CNC(=O)[C@@H]1CCCN1C(=O)[C@H](CC(C)C)NC(=O)[C@@H]1CCCN1C(=O)[C@H](C)NC(=O)[C@H](COP(=O)(O)O)NC(=O)[C@H](C)NC(=O)[C@H](CCCNC(=N)N)NC(=O)[C@H](CCCNC(=N)N)NC(=O)[C@H](CC(C)C)NC(=O)[C@@H](N)Cc1c[nH]c2ccccc12)C(=O)N[C@@H](CO)C(=O)N[C@@H](CCCCN)C(=O)O` [pHSP20 peptide] (H-WLRRA[pS]APLPGLSK-OH; N-terminus and C-terminus assumed) was tested. Which “competition” value [2] did it give?
Its value is “binding of 14-3-3 to the pHSP20 ligand is decreased”.

What about the “isoform specificity for the pHSP20 peptide” value [6] of the same compound?
The value was “YWHAG>YWHAH>YWHAE=YWAHB=YWHAZ and 14-3-3γ (YWHAG) and 14-3-3η (YWHAH) bind stronger than the other 14-3-3 isoforms”.

And the “binding of 14-3-3 proteins in pull-down” value [7]?
Its value is “binds to 14-3-3 proteins”.

Which “inhibition” value [3] does the source give for `CC(C)(C)c1nc(Nc2ccccc2)s[n+]1C=C(Cl)Cl` [(a)] here?
The value was “able to largely inhibit interaction”.

Which “competition” value [2] does the source give for RRApSAP here?
Its value is “competed better than the original pHSP20 sequence; also recorded: higher binding affinity to 14-3-3 gamma than the original pHSP20 peptide; also recorded: strong competition”.
